Reference: US7932270B2 (Cytokinetics, Inc., priority 2006, dated 2011)

The compounds below were run against T1, chicken gizzard smooth muscle myosin subfragment-1 chemically crosslinked to cardiac or skeletal actin (Gallus gallus, UniProt P10587) (assay: Smooth muscle myosin ATPase dose response assay (pyruvate kinase/horseradish peroxidase/pyruvate oxidase-coupled, amplex red fluorescence)). Conditions: read-out: IC50 Arithmetic Mean.
T1 construct: chicken gizzard smooth muscle myosin subfragment-1; from tissue; host or cells: chicken gizzard
T1 sequence (P02607 2-151): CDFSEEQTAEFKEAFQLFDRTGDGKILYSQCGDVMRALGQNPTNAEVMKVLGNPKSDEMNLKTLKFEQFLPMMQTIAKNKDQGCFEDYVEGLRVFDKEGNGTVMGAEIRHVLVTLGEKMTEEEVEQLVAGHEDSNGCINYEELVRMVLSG
T1 sequence (P10587 84-789): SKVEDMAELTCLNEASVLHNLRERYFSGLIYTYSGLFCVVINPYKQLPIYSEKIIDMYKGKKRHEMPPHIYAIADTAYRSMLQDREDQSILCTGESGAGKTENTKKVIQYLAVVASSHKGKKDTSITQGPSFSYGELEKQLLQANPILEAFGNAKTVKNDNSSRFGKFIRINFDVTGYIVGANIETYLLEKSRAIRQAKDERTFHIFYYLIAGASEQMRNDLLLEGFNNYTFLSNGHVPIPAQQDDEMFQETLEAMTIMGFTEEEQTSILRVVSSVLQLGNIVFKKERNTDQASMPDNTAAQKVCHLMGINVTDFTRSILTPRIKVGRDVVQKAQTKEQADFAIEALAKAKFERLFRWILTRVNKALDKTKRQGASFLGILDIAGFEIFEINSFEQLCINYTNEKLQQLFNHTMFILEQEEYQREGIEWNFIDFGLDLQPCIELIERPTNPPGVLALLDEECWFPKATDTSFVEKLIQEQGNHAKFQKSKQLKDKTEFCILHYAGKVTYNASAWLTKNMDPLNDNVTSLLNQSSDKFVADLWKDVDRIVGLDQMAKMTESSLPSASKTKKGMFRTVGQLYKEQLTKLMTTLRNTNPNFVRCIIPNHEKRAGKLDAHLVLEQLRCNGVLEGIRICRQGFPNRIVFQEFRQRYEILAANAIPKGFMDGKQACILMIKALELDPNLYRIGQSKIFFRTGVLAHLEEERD
Type: biochemical
Procedure, shortened: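 Chicken gizzard myosin S1 crosslinked to cardiac or skeletal actin, titrated to a set hydrolysis rate; 0.15 mM ATP, 12 mM PIPES pH 7.00, 100 mM KCl, 2 mM MgCl2. Pyruvate kinase/pyruvate oxidase/HRP coupling with amplex red fluorescence; IC50 from 4-parameter fit.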

Row | SMILES | IC50 [nM]
1 | N#Cc1ccccc1-c1ccc(C(=O)NCCCN2C(=O)CC[C@@H]2CN)c(NCCc2cccc(F)c2)n1 [N-{3-[(5R)-5-(aminomethyl)-2-oxopyrrolidinyl]propyl}(6-(2-cyanophenyl)-2-{[2-(3-fluorophenyl)ethyl]amino}(3-pyridyl))carboxamide] | 4950
2 | N#Cc1ccccc1-c1ccc(C(=O)NCCCN2C(=O)CC[C@H]2CN)c(NCCc2cccc(F)c2)n1 [N-{3-[(5S)-5-(aminomethyl)-2-oxopyrrolidinyl]propyl}(6-(2-cyanophenyl)-2-{[2-(3-fluorophenyl)ethyl]amino}(3-pyridyl))carboxamide] | 11700
3 | Cn1cc(-c2nc(NCCc3cccc(F)c3)c(C(=O)NCCCNC(=O)OC(C)(C)C)cc2F)cn1 [N-{3-[(tert-butoxy)carbonylamino]propyl}(5-fluoro-2-{[2-(3-fluorophenyl)ethyl]amino}-6-(1-methylpyrazol-4-yl)(3-pyridyl))carboxamide] | 4500
4 | CC(C)(C)OC(=O)NCCCNC(=O)CNC(=O)c1ccc(-c2ccccc2C#N)nc1NCCc1cccc(F)c1 [N-{3-[(tert-butoxy)carbonylamino]propyl}-2-[(6-(2-cyanophenyl)-2-{[2-(3-fluorophenyl)ethyl]amino}(3-pyridyl))carbonylamino]acetamide] | 9880
5 | N#Cc1ccccc1-c1ccc(C(=O)N[C@H](CCCCNC(=O)OCc2ccccc2)C(N)=O)c(NCCc2cccc(F)c2)n1 [N-{(1R)-1-carbamoyl-5-[(phenylmethoxy)carbonylamino]pentyl}(6-(2-cyanophenyl)-2-{[2-(3-fluorophenyl)ethyl]amino}(3-pyridyl))carboxamide] | 58800
6 | CC(=O)N[C@@H](CNC(=O)c1ccc(-c2ccccc2C#N)nc1NCCc1cccc(F)c1)C(N)=O [N-{(1S)-1-carbamoyl-2-[(6-(2-cyanophenyl)-2-{[2-(3-fluorophenyl)ethyl]amino}(3-pyridyl))carbonylamino]ethyl}acetamide] | 2630
7 | C[C@H](CNC(=O)c1cc(F)c(-c2cnn(C)c2)nc1NCCc1cccc(F)c1)NCCO [N-{(2R)-2-[(2-hydroxyethyl)amino]propyl}(5-fluoro-2-{[2-(3-fluorophenyl)ethyl]amino}-6-(1-methylpyrazol-4-yl)(3-pyridyl))carboxamide] | 648
8 | COCCN[C@H](C)CNC(=O)c1cc(F)c(-c2cnn(C)c2)nc1NCCc1cccc(F)c1 [N-{(2R)-2-[(2-methoxyethyl)amino]propyl}(5-fluoro-2-{[2-(3-fluorophenyl)ethyl]amino}-6-(1-methylpyrazol-4-yl)(3-pyridyl))carboxamide] | 2330
9 | C[C@H](CNC(=O)c1cc(F)c(-c2cnn(C)c2)nc1NCCc1cccc(F)c1)NCC(N)=O [N-{(2R)-2-[(carbamoylmethyl)amino]propyl}(5-fluoro-2-{[2-(3-fluorophenyl)ethyl]amino}-6-(1-methylpyrazol-4-yl)(3-pyridyl))carboxamide] | 636
10 | C[C@H](CNC(=O)c1cc(F)c(-c2cnn(C)c2)nc1NCCc1cccc(F)c1)NS(C)(=O)=O [N-{(2R)-2-[(methylsulfonyl)amino]propyl}(5-fluoro-2-{[2-(3-fluorophenyl)ethyl]amino}-6-(1-methylpyrazol-4-yl)(3-pyridyl))carboxamide] | 1000
11 | C[C@H](CNC(=O)c1ccc(-c2ccccc2C#N)nc1NCCc1cccc(F)c1)NS(C)(=O)=O [N-{(2R)-2-[(methylsulfonyl)amino]propyl}(6-(2-cyanophenyl)-2-{[2-(3-fluorophenyl)ethyl]amino}(3-pyridyl))carboxamide] | 1330
12 | C[C@H](CNC(=O)c1cc(F)c(-c2cn[nH]c2)nc1NCCc1cccc(F)c1)NC(=O)OC(C)(C)C [N-{(2R)-2-[(tert-butoxy)carbonylamino]propyl}(5-fluoro-2-{[2-(3-fluorophenyl)ethyl]amino}-6-pyrazol-4-yl(3-pyridyl))carboxamide] | 8210
13 | C[C@H](CNC(=O)c1ccc(-c2ccccc2C#N)nc1NCCc1cccc(F)c1)N(C)S(C)(=O)=O [N-{(2R)-2-[methyl(methylsulfonyl)amino]propyl}(6-(2-cyanophenyl)-2-{[2-(3-fluorophenyl)ethyl]amino}(3-pyridyl))carboxamide] | 7070
14 | C[C@@H](CNC(=O)CNC(=O)OC(C)(C)C)CNC(=O)c1cc(F)c(-c2cnn(C)c2)nc1NCCc1cccc(F)c1 [N-{(2R)-3-[(5-fluoro-2-{[2-(3-fluorophenyl)ethyl]amino}-6-(1-methylpyrazol-4-yl)(3-pyridyl))carbonylamino]-2-methylpropyl}-2-[(tert-butoxy)carbonylamino]acetamide] | 373
15 | C[C@@H](CNC(=O)CN)CNC(=O)c1cc(F)c(-c2cnn(C)c2)nc1NCCc1cccc(F)c1 [N-{(2R)-3-[(5-fluoro-2-{[2-(3-fluorophenyl)ethyl]amino}-6-(1-methylpyrazol-4-yl)(3-pyridyl))carbonylamino]-2-methylpropyl}-2-aminoacetamide] | 152
16 | C[C@@H](CNC(=O)CO)CNC(=O)c1cc(F)c(-c2cnn(C)c2)nc1NCCc1cccc(F)c1 [N-{(2R)-3-[(5-fluoro-2-{[2-(3-fluorophenyl)ethyl]amino}-6-(1-methylpyrazol-4-yl)(3-pyridyl))carbonylamino]-2-methylpropyl}-2-hydroxyacetamide] | 105

Row | SMILES | IC50 [nM]
17 | C[C@@H](CNC(=O)c1ccc(-c2ccccc2C#N)nc1NCCc1cccc(F)c1)NS(C)(=O)=O [N-{(2S)-2-[(methylsulfonyl)amino]propyl}(6-(2-cyanophenyl)-2-{[2-(3-fluorophenyl)ethyl]amino}(3-pyridyl))carboxamide] | 1210
18 | C[C@@H](CNC(=O)c1ccc(-c2ccccc2C#N)nc1NCCc1cccc(F)c1)N(C)S(C)(=O)=O [N-{(2S)-2-[methyl(methylsulfonyl)amino]propyl}(6-(2-cyanophenyl)-2-{[2-(3-fluorophenyl)ethyl]amino}(3-pyridyl))carboxamide] | 5840
19 | N#Cc1ccccc1-c1ccc(C(=O)N[C@H](CCCNC(=O)OCc2ccccc2)C(N)=O)c(NCCc2cccc(F)c2)n1 [N-{(4R)-4-carbamoyl-4-[(6-(2-cyanophenyl)-2-{[2-(3-fluorophenyl)ethyl]amino}(3-pyridyl))carbonylamino]butyl}(phenylmethoxy)carboxamide] | 19600
20 | N#Cc1ccccc1-c1ccc(C(=O)NCC2CCN(C(=O)CN)CC2)c(NCCc2cccc(F)c2)n1 [N-{[1-(2-aminoacetyl)(4-piperidyl)]methyl}(6-(2-cyanophenyl)-2-{[2-(3-fluorophenyl)ethyl]amino}(3-pyridyl))carboxamide] | 572
21 | N#Cc1ccccc1-c1ccc(C(=O)NCC2CCCCCN2C(=O)CN)c(NCCc2cccc(F)c2)n1 (centres unmarked) [N-{[1-(2-aminoacetyl)azaperhydroepin-2-yl]methyl}(6-(2-cyanophenyl)-2-{[2-(3-fluorophenyl)ethyl]amino}(3-pyridyl))carboxamide] | 248
22 | N#Cc1ccccc1-c1ccc(C(=O)NCC2CCN(C(=O)CN)C2)c(NCCc2cccc(F)c2)n1 (centres unmarked) [N-{[1-(2-aminoacetyl)pyrrolidin-3-yl]methyl}(6-(2-cyanophenyl)-2-{[2-(3-fluorophenyl)ethyl]amino}(3-pyridyl))carboxamide] | 203
23 | N#Cc1ccccc1-c1ccc(C(=O)NCC2CCCN(CCN)C2=O)c(NCCc2cccc(F)c2)n1 (centres unmarked) [N-{[1-(2-aminoethyl)-2-oxo(3-piperidyl)]methyl}(6-(2-cyanophenyl)-2-{[2-(3-fluorophenyl)ethyl]amino}(3-pyridyl))carboxamide] | 31
24 | Cn1cc(-c2ccc(C(=O)NCc3ccn(CCN)n3)c(NCCc3cccc(F)c3)n2)cn1 [N-{[1-(2-aminoethyl)pyrazol-3-yl]methyl}(2-{[2-(3-fluorophenyl)ethyl]amino}-6-(1-methylpyrazol-4-yl)(3-pyridyl))carboxamide] | 1860
25 | NCCn1ccc(CNC(=O)c2ccc(-c3cc[nH]n3)nc2NCCc2cccc(F)c2)n1 [N-{[1-(2-aminoethyl)pyrazol-3-yl]methyl}(2-{[2-(3-fluorophenyl)ethyl]amino}-6-pyrazol-3-yl(3-pyridyl))carboxamide] | 5510
26 | NCCn1ccc(CNC(=O)c2ccc(-c3cn[nH]c3)nc2NCCc2cccc(F)c2)n1 [N-{[1-(2-aminoethyl)pyrazol-3-yl]methyl}(2-{[2-(3-fluorophenyl)ethyl]amino}-6-pyrazol-4-yl(3-pyridyl))carboxamide] | 1490
27 | N#Cc1ccccc1-c1ccc(C(=O)NCc2ccn(CCN)n2)c(NCCc2cccc(F)c2)n1 [N-{[1-(2-aminoethyl)pyrazol-3-yl]methyl}(6-(2-cyanophenyl)-2-{[2-(3-fluorophenyl)ethyl]amino}(3-pyridyl))carboxamide] | 296
28 | Cn1cc(-c2ccc(C(=O)NCc3ccnn3CCN)c(NCCc3cccc(F)c3)n2)cn1 [N-{[1-(2-aminoethyl)pyrazol-5-yl]methyl}(2-{[2-(3-fluorophenyl)ethyl]amino}-6-(1-methylpyrazol-4-yl)(3-pyridyl))carboxamide] | 313
29 | NCCn1nccc1CNC(=O)c1ccc(-c2cc[nH]n2)nc1NCCc1cccc(F)c1 [N-{[1-(2-aminoethyl)pyrazol-5-yl]methyl}(2-{[2-(3-fluorophenyl)ethyl]amino}-6-pyrazol-3-yl(3-pyridyl))carboxamide] | 634
30 | N#Cc1ccccc1-c1ccc(C(=O)NCc2ccnn2CCN)c(NCCc2cccc(F)c2)n1 [N-{[1-(2-aminoethyl)pyrazol-5-yl]methyl}(6-(2-cyanophenyl)-2-{[2-(3-fluorophenyl)ethyl]amino}(3-pyridyl))carboxamide] | 32
31 | N#Cc1ccccc1-c1ccc(C(=O)NCC2CCCN2CCN)c(NCCc2cccc(F)c2)n1 (centres unmarked) [N-{[1-(2-aminoethyl)pyrrolidin-2-yl]methyl}(6-(2-cyanophenyl)-2-{[2-(3-fluorophenyl)ethyl]amino}(3-pyridyl))carboxamide] | 758
32 | N#Cc1ccccc1-c1ccc(C(=O)NCC2CCN(C(=O)CCN)CC2)c(NCCc2cccc(F)c2)n1 [N-{[1-(3-aminopropanoyl)(4-piperidyl)]methyl}(6-(2-cyanophenyl)-2-{[2-(3-fluorophenyl)ethyl]amino}(3-pyridyl))carboxamide] | 3870
